28 molecules from patent US7560468B2, “Substituted 1,4,8-triazaspiro[4,5]decan-2-one compounds” (Gruenenthal GmbH, priority 2004, dated 2009) can be followed below.

The subject of experiment [1] is NA transporter. Description: Inhibition of noradrenalin uptake in synaptosomes. In kind it is biochemical.
The test system of experiment [2] is batrachotoxin (BTX) binding site of the sodium channel. Description: Affinity to the batrachotoxin (BTX) binding site of the sodium channel. The settings on record: rat cerebrocortex synaptosomes, [3H]-batrachotoxinin A20 α-benzoate 10 nM; test concentration not given.
Experiment [3] has as its target T1, 5-HT transporter (Rattus norvegicus, UniProt P31652).
T1 construct: from tissue; host or cells: rat brain synaptosomes (marrow/medulla and pons), P2 fraction
Description: Inhibition of 5-HT uptake in synaptosomes. It is filed as biochemical. The settings on record: for inhibition at 1 µM: read-out: Uptake_5-HT, rat, 1 μM, % inhibition.

T1 sequence (P31652 whole entry): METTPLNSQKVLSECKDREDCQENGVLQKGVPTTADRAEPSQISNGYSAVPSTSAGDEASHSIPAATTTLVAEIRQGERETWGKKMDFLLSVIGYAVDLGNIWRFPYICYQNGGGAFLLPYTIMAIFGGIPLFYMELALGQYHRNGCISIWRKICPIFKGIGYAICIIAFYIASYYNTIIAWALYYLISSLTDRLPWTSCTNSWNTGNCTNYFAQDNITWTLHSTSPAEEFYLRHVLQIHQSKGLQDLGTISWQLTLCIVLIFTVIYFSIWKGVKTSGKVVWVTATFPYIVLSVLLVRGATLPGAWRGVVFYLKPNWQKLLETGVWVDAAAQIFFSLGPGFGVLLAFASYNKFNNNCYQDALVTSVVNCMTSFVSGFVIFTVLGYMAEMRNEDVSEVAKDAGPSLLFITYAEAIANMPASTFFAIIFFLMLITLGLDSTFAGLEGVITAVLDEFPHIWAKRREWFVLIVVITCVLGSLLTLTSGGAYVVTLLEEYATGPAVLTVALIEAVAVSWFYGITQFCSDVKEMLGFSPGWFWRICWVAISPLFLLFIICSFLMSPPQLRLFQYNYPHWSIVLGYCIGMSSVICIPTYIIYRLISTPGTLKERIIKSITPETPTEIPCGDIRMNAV

For the molecule `CC(C)C1NC2(CCN(C(=S)Nc3ccccc3)CC2)N(Cc2ccccc2)C1=O` (centres unmarked) [Example 156, 1-Benzyl-3-isopropyl-2-oxo-1,4,8-triazaspiro[4,5]decan-8-thiocarboxylic acid benzolamide], the “Uptake (NA), rat, 10 μM, % inhibition” value in experiment [1] worked out at 33%.
On to `C#CCN1C(=O)C(CC(C)C)NC12CCN(C(=S)Nc1cc(Cl)cc(Cl)c1)CC2` (centres unmarked) [Example 195, 3-Isobutyl-2-oxo-1-prop-2-ynyl-1,4,8-triazaspiro[4,5]decan-8-thiocarboxylic acid (3,5-dichlorobenzol)amide], for which the “Uptake (NA), rat, 10 μM, % inhibition” value in experiment [1] amounted to 30%. The “BTX Inhibition” value in experiment [2] was found to be 77.
For `COc1ccccc1NC(=S)N1CCC2(CC1)NC(CCSC)C(=O)N2Cc1cccc(C#N)c1` (centres unmarked) [Example 184, 1-(3-Cyanobenzyl)-3-(2-methylsulfanylethyl)-2-oxo-1,4,8-triazaspiro[4,5]decan-8-thiocarboxylic acid (2-methoxy-benzol)amide] the same measures were 32% and 36.
`CSCCC1NC2(CCN(C(=S)Nc3cccc(C)c3)CC2)N(Cc2ccccc2C#N)C1=O` (centres unmarked) [Example 161, 1-(2-Cyanobenzyl)-3-(2-methylsulfanylethyl)-2-oxo-1,4,8-triazaspiro[4,5]decan-8-thiocarboxylic acid m-tolylamide]: the “Uptake (NA), rat, 10 μM, % inhibition” value in experiment [1] came out at 33%. The “BTX Inhibition” value in experiment [2] was determined as 53.
On to `CN(C)S(=O)(=O)N1CCC2(CC1)NCC(=O)N2Cc1ccccc1` [Example 9, 1-Benzyl-2-oxo-1,4,8-triazaspiro[4,5]decan-8-sulfonic acid dimethylamide], for which the “Uptake (NA), rat, 10 μM, % inhibition” value in experiment [1] is 40%.
With `CCOC(=O)CC(C)NC(=S)N1CCC2(CC1)NC(Cc1ccccc1)C(=O)N2C` (centres unmarked) [Example 131, Ethyl 3-[(3-benzyl-1-methyl-2-oxo-1,4,8-triazaspiro[4,5]decan-8-carbothioyl)amino]-butyrate], in experiment [1], the “Uptake (NA), rat, 10 μM, % inhibition” value is recorded as 42%. Also, the “BTX Inhibition” value in experiment [2] was found to be 42.
For `CC(C)C1NC2(CCN(C(=S)Nc3cc(F)ccc3F)CC2)N(Cc2ccccc2)C1=O` (centres unmarked) [Example 157, 1-Benzyl-3-isopropyl-2-oxo-1,4,8-triazaspiro[4,5]decan-8-thiocarboxylic acid (2,5-difluorobenzol)amide] the same measures were 38% and 39.
As to `COc1ccccc1NC(=S)N1CCC2(CC1)NC(C(C)C)C(=O)N2Cc1ccccc1` (centres unmarked) [Example 155, 1-Benzyl-3-isopropyl-2-oxo-1,4,8-triazaspiro[4,5]decan-8-thiocarboxylic acid (2-methoxy-benzol)amide], the “Uptake (NA), rat, 10 μM, % inhibition” value in experiment [1] is 52%. Moreover, in experiment [2], the “BTX Inhibition” value was 32.
Consider `COC(=O)c1ccccc1NC(=S)N1CCC2(CC1)NC(CCSC)C(=O)N2Cc1ccccc1C#N` (centres unmarked) [Example 153, Methyl 2-{[1-(2-cyanobenzyl)-3-(2-methylsulfanylethyl)-2-oxo-1,4,8-triazaspiro[4,5]decan-8-carbothioyl]-amino}-benzoate], for which the “Uptake (NA), rat, 10 μM, % inhibition” value in experiment [1] turned out to be 30%. Also, the “BTX Inhibition” value in experiment [2] is 53.
Take `COC(=O)c1ccc(CN2C(=O)C(C(C)C)NC23CCN(C(=S)Nc2c(F)c(F)c(F)c(F)c2F)CC3)cc1` (centres unmarked) [Example 164, Methyl 4-(3-isopropyl-2-oxo-8-pentafluorobenzolthiocarbamoyl-1,4,8-triazaspiro[4,5]dec-1-ylmethyl)benzoate]: the “Uptake (NA), rat, 10 μM, % inhibition” value in experiment [1] came out at 58%. Besides, the “BTX Inhibition” value in experiment [2] amounted to 42.
As for `C=CCN1C(=O)C(C(C)C)NC12CCN(C(=S)NCc1ccc(F)cc1)CC2` (centres unmarked) [Example 162, 1-Allyl-3-isopropyl-2-oxo-1,4,8-triazaspiro[4,5]decan-8-thiocarboxylic acid 4-fluorobenzylamide], the “Uptake (NA), rat, 10 μM, % inhibition” value in experiment [1] is 26%.
For `COC(=O)c1ccc(CN2C(=O)C(C(C)C)NC23CCN(C(=O)NC2CCCCC2)CC3)cc1` (centres unmarked) [Example 206, Methyl 4-(8-cyclohexylcarbamoyl-3-isopropyl-2-oxo-1,4,8-triazaspiro[4,5]dec-1-ylmethyl)benzoate], in experiment [1], the “Uptake (NA), rat, 10 μM, % inhibition” value came to 39%.
Consider `CCOC(=O)NC(=S)N1CCC2(CC1)NC(C(C)C)C(=O)N2Cc1ccc(C(=O)OC)cc1` (centres unmarked) [Example 167, Methyl 4-(8-ethoxycarbonylaminocarbothioyl-3-isopropyl-2-oxo-1,4,8-triazaspiro[4,5]dec-1-ylmethyl)benzoate], for which the “Uptake (NA), rat, 10 μM, % inhibition” value in experiment [1] stood at 42%.
Consider `CC(C)C1NC2(CCN(C(=S)Nc3cc(Cl)cc(Cl)c3)CC2)N(Cc2ccccc2)C1=O` (centres unmarked) [Example 177, 1-Benzyl-3-isopropyl-2-oxo-1,4,8-triazaspiro[4,5]decan-8-thiocarboxylic acid (3,5-dichlorobenzol)amide], for which, in experiment [3], the “Uptake_5-HT, rat, 1 μM, % inhibition” value came to 36%. The “BTX Inhibition” value in experiment [2] is 46.
As for `CC(C)CC1NC2(CCN(C(=S)Nc3ccc(F)cc3)CC2)NC1=O` (centres unmarked) [Example 112, 2-Isobutyl-3-oxo-1,4,8-triazaspiro[4,5]decan-8-thiocarboxylic acid (4-fluorobenzol)amide], the “Uptake_5-HT, rat, 1 μM, % inhibition” value in experiment [3] is given as 31%. In experiment [2], the “BTX Inhibition” value stood at 30.
Consider `COC(=O)c1ccc(CN2C(=O)C(C(C)C)NC23CCN(C(=O)Nc2cccc(OC)c2)CC3)cc1` (centres unmarked) [Example 223, Methyl 4-[3-isopropyl-8-(3-methoxy-benzolcarbamoyl)-2-oxo-1,4,8-triazaspiro[4,5]dec-1-ylmethyl]-benzoate], for which the “Uptake (NA), rat, 10 μM, % inhibition” value in experiment [1] is reported as 31%.
As to `COC(=O)c1ccc(CN2C(=O)C(C(C)C)NC23CCN(C(=O)Nc2ccc(Cl)c(C(F)(F)F)c2)CC3)cc1` (centres unmarked) [Example 241, Methyl 4-[8-(4-chloro-3-trifluoromethylbenzolcarbamoyl)-3-isopropyl-2-oxo-1,4,8-triazaspiro[4,5]dec-1-ylmethyl]-benzoate], in experiment [3], the “Uptake_5-HT, rat, 1 μM, % inhibition” value is 31%. For the same molecule, the “BTX Inhibition” value in experiment [2] came to 78.
Turning to `O=C(NC1CCCCC1)N1CCC2(CC1)NC(Cc1ccccc1)C(=O)N2Cc1ccccc1F` (centres unmarked) [Example 238, 3-Benzyl-1-(2-fluorobenzyl)-2-oxo-1,4,8-triazaspiro[4,5]decan-8-carboxylic acid cyclohexylamide], the inhibition at 1 µM in experiment [3] worked out at 43%. In experiment [2], the “BTX Inhibition” value is 73.
Consider `COC(=O)c1ccc(CN2C(=O)CNC23CCN(S(=O)(=O)Cc2ccccc2)CC3)cc1` [Example 51, Methyl 4-(2-Oxo-8-benzolmethansulfonyl-1,4,8-triazaspiro[4,5]dec-1-ylmethyl)benzoate], for which the “Uptake_5-HT, rat, 1 μM, % inhibition” value in experiment [3] is reported as 62%. The “BTX Inhibition” value in experiment [2] worked out at 31.
Take `COc1ccc(S(=O)(=O)N2CCC3(CC2)NC(Cc2ccccc2)C(=O)N3Cc2ccccc2)cc1OC` (centres unmarked) [Example 29, 1,3-Dibenzyl-8-(3,4-dimethoxy-benzolsulfonyl)-1,4,8-triazaspiro[4,5]decan-2-one]: the “Uptake_5-HT, rat, 1 μM, % inhibition” value in experiment [3] worked out at 75%. Further, the “BTX Inhibition” value in experiment [2] came to 47.
Take `CSCCC1NC2(CCN(C(=O)Nc3cccc(C(C)=O)c3)CC2)N(Cc2ccccc2C#N)C1=O` (centres unmarked) [Example 234, 1-(2-Cyanobenzyl)-3-(2-methylsulfanylethyl)-2-oxo-1,4,8-triazaspiro[4,5]decan-8-carboxylic acid (3-acetylbenzol)amide]: the “Uptake_5-HT, rat, 1 μM, % inhibition” value in experiment [3] stood at 45%. In addition, the “BTX Inhibition” value in experiment [2] came to 31.
`CSCCC1NC2(CCN(S(=O)(=O)c3ccccc3C(F)(F)F)CC2)N(Cc2ccc(F)cc2)C1=O` (centres unmarked) [Example 25, 1-(4-Fluorobenzyl)-3-(2-methylsulfanylethyl)-8-(2-trifluoromethylbenzolsulfonyl)-1,4,8-triazaspiro[4,5]decan-2-one]: the “Uptake_5-HT, rat, 1 μM, % inhibition” value in experiment [3] was determined as 58%. In addition, the “BTX Inhibition” value in experiment [2] came out at 57.
In the case of `CCOC(=O)CN1C(=O)C(Cc2ccccc2)NC12CCN(S(=O)(=O)c1ccc(Cl)s1)CC2` (centres unmarked) [Example 61, Ethyl[3-benzyl-8-(5-chlorothiophen-2-sulfonyl)-2-oxo-1,4,8-triazaspiro[4,5]dec-1-yl]-acetate], the inhibition at 1 µM in experiment [3] was determined as 61%. The “BTX Inhibition” value in experiment [2] is reported as 50.
Consider `CSCCC1NC2(CCN(C(=O)Nc3ccc(OC(F)(F)F)cc3)CC2)N(Cc2ccc(F)cc2)C1=O` (centres unmarked) [Example 237, 1-(4-Fluorobenzyl)-3-(2-methylsulfanylethyl)-2-oxo-1,4,8-triazaspiro[4,5]decan-8-carboxylic acid (4-trifluoromethoxy-benzol)amide], for which the “Uptake_5-HT, rat, 1 μM, % inhibition” value in experiment [3] is reported as 39%. The “BTX Inhibition” value in experiment [2] was 87.
In the case of `O=C(NCc1ccc(Cl)c(Cl)c1)N1CCC2(CC1)NC(Cc1ccccc1)C(=O)N2Cc1ccccc1F` (centres unmarked) [Example 233, 3-Benzyl-1-(2-fluorobenzyl)-2-oxo-1,4,8-triazaspiro[4,5]decan-8-carboxylic acid 3,4-dichlorobenzylamide], the inhibition at 1 µM in experiment [3] is 44%. In addition, in experiment [2], the “BTX Inhibition” value was found to be 85.
For the molecule `CCC(C)(C)c1ccc(S(=O)(=O)N2CCC3(CC2)NCC(=O)N3Cc2ccccc2C#N)cc1` [Example 6, 2-{8-[4-(1,1-Dimethylpropyl)benzolesulfonyl]-2-oxo-1,4,8-triazaspiro[4,5]dec-1-ylmethyl}-benzonitrile], the “Uptake_5-HT, rat, 1 μM, % inhibition” value in experiment [3] turned out to be 57%. Besides, in experiment [2], the “BTX Inhibition” value is given as 56.
For `O=C(Nc1cc(F)ccc1F)N1CCC2(CC1)NC(Cc1ccccc1)C(=O)N2Cc1ccccc1F` (centres unmarked) [Example 230, 3-Benzyl-1-(2-fluorobenzyl)-2-oxo-1,4,8-triazaspiro[4,5]decan-8-carboxylic acid (2,5-difluorobenzol)amide], the “Uptake_5-HT, rat, 1 μM, % inhibition” value in experiment [3] turned out to be 63%. Moreover, the “BTX Inhibition” value in experiment [2] is 78.
Consider `CCCCN1C(=O)C(CCSC)NC12CCN(C(=S)NCC1CCCCC1)CC2` (centres unmarked) [Example 132, 1-Butyl-3-(2-methylsulfanylethyl)-2-oxo-1,4,8-triazaspiro[4,5]decan-8-thiocarboxylic acid cyclohexylmethylamide], for which the inhibition at 1 µM in experiment [3] is 30%. Besides, the “BTX Inhibition” value in experiment [2] amounted to 71.
